We go through 104 compounds from PubChem BioAssay AID1996.

≈ marks a conversion by molar mass, not a printed value.

One may read the solubility (kinetic) as solubility judged after dilution from a stock solution rather than from solid.

For the series the following is noted: buffer; pH 7.4; 200.0 µM.
In turn, `C[n+]1cccc2cccc([O-])c21.O` had a kinetic solubility of 25.2 µg/mL.
The same measure for `CCOc1ccc(Oc2ccccc2NC(=O)CCNC(C)=O)cc1`: more than 51.4 µg/mL; for `COc1ccc(OC)c(C(=O)/C=C/c2cccnc2)c1`: more than 40.4 µg/mL; for `O=C(NCC(=O)N1CCN(S(=O)(=O)c2ccc3c(c2)OCCO3)CC1)c1ccccc1F`: 10.2 µg/mL (≈ 22 µM).
The compound `Cc1cccc(S(=O)(=O)N2CCCc3ccccc32)c1` yielded a solubility (kinetic) of 6.7 µg/mL (≈ 23.3 µM). Against the preceding compound, the solubility kinetic is about 1.5-fold lower.
Consider `O=C(Nc1ccc2ccccc2n1)C1CCCCC1`, for which the solubility (kinetic) was found to be 26.6 µg/mL (≈ 105 µM). Compared with the last compound, the solubility kinetic is about 4-fold higher.
For `CCCCC(=O)N(CCOC)c1nnc(-c2cccnc2)s1`, the solubility (kinetic) was more than 48.1 µg/mL.
The same measure for `COc1ccc(NC(=O)c2cc(C)no2)cc1Cl`: 7.5 µg/mL (≈ 28.1 µM); for `COc1cc(NC(=S)N2CCOCC2)c(OC)cc1Cl`: more than 47.5 µg/mL.
Regarding `FC(F)Oc1ccc(N=C2SCC3CCCCN23)cc1` (centres undefined), the kinetic solubility was determined as 15.3 µg/mL (≈ 51.3 µM).
On to `CC(OC(=O)c1cc2ccccc2[nH]1)C(=O)N(C)c1ccccc1` (centres undefined), for which the solubility (kinetic) stood at 3.8 µg/mL (≈ 11.8 µM).
The same measure for `CC(C)(CNC(=O)c1ccc(Br)o1)N1CCOCC1`: 42.8 µg/mL (≈ 129 µM).
The result for `O=C(c1ccc(F)cc1)c1ccc(N2CCCCC2)cc1` reads 3.6 µg/mL (≈ 12.7 µM); that for `COc1cc(C2NC(=O)NC3=C2C(=O)OC3)cc(OC)c1OC` (centres undefined), more than 48 µg/mL.
The same measure for `COc1cccc(NS(=O)(=O)c2ccc3c(c2)CC(=O)N3)c1`: more than 47.8 µg/mL; for `CC(=O)Nc1ccc(C(=O)OCC(=O)N(C)C2CCCCC2)cc1`: 36 µg/mL (≈ 108 µM).
`COc1cccc2[nH]c3c(=O)[nH]cnc3c12` came in with a kinetic solubility of more than 32.3 µg/mL.
The same measure for `COc1ccccc1CNC(=O)C(Cc1ccccc1)NC(=O)c1ccccc1` (centres undefined): 12.8 µg/mL (≈ 33 µM); for `CCOc1ccccc1NC(=O)COC(=O)C1CCC1`: 39.2 µg/mL (≈ 141 µM); for `Cc1cccnc1NC(=O)c1ccc2c(c1)OCCO2`: more than 40.5 µg/mL.
The result for `COc1cc(C(=O)OCC(=O)Nc2ccc(S(=O)(=O)N3CCCC3)cc2)cc(OC)c1OC` reads 18.1 µg/mL (≈ 37.8 µM).
The same measure for `CSc1nc(N)nc(N(C)C)n1`: 24.3 µg/mL (≈ 131 µM); for `Cc1ccc(CNc2ccc3c(c2)ncn3C(C)C)cc1`: more than 41.9 µg/mL.
Take `CCC(=O)Nc1cccc(C(=O)Nc2nccs2)c1`: the kinetic solubility is more than 41.3 µg/mL.
With `CCc1ccc(C)[n+](CC(=O)c2cccs2)c1.[Cl-]`, the solubility (kinetic) was more than 42.3 µg/mL.
The result for `CC(=O)c1ccc(N2CCc3ccccc3C2)c([N+](=O)[O-])c1` reads 8.3 µg/mL (≈ 28 µM); that for `NS(=O)(=O)c1ccc(CCNC(=S)NC2CCCCC2)cc1`, more than 51.2 µg/mL.
The result for `CC1(NC(=O)Cc2c(F)cccc2Cl)CCS(=O)(=O)C1` (centres undefined) reads more than 48 µg/mL; that for `Cc1cc(C)n(-c2ccc(C(=O)N3CC(C)OC(C)C3)cc2)n1` (centres undefined), more than 47 µg/mL; that for `CC(=O)N(CCN(C)C)c1nc2cc3c(cc2s1)OCCO3.Cl`, 47.6 µg/mL.
The result for `COCCCNc1nc(N)c([N+](=O)[O-])c(NC2CCCCC2)n1` reads 2.8 µg/mL (≈ 8.63 µM).
The compound `CC1COc2ccccc2N1C(=O)c1ccccc1Cl` (centres undefined) displayed a solubility (kinetic) of more than 43.2 µg/mL.
`O=S(=O)(NCc1ccco1)c1ccc(Cl)cc1Cl`: the solubility (kinetic) is 35 µg/mL (≈ 114 µM).
The result for `Cc1ccccc1OCC(=O)Nc1ccc([N+](=O)[O-])cc1` reads 0.4 µg/mL (≈ 1.4 µM); that for `Cc1cccc(C(=O)Nc2sc3c(c2C(=O)O)CCC3)c1`, more than 45.2 µg/mL; that for `C=CCN=C1S/C(=C/c2cccc([N+](=O)[O-])c2)C(=O)N1CC=C`, 1.5 µg/mL (≈ 4.55 µM).
The same measure for `CCCNC(=S)N1CCC(NC(=O)c2ccc(C)cc2)CC1`: 7.5 µg/mL (≈ 23.5 µM).
The same measure for `COc1ccc(OC)c(NC(=O)c2nc(-c3ccccc3)oc2C)c1`: 3.1 µg/mL (≈ 9.16 µM); for `CC1CCCC(C)N1C(=O)COC(=O)c1cccnc1Cl` (centres undefined): more than 46.6 µg/mL; for `CCN(C(=O)COc1ccc(C)cc1OC)c1cccc2ccccc12`: 33.7 µg/mL (≈ 96.4 µM).
With `Cc1ccc(C(=O)Nc2cccc(C(O)c3ccccc3)c2)cc1` (centres undefined), the solubility (kinetic) was 2.5 µg/mL (≈ 7.88 µM). This solubility kinetic lies about 13-fold lower than the previous one.
`COc1ccccc1CC(=O)N(Cc1ccccc1)c1cccc(C)c1`: the kinetic solubility was found to be 8.9 µg/mL (≈ 25.8 µM).
The result for `CSc1ncc(CN2CCN(C(C)C)C(CCO)C2)cn1` (centres undefined) reads more than 46.6 µg/mL.
Regarding `Cc1cccc(Nc2nc(Cl)ncc2F)c1C`, the kinetic solubility is 5.3 µg/mL (≈ 21.1 µM).
`Cc1ccc(C(=O)NCC(=O)Nc2ccncc2)s1` came in with a solubility (kinetic) of more than 41.3 µg/mL.
The result for `Cc1ccc2c(c1)N(CC(=O)Nc1ccccc1F)C(=O)CO2` reads 0.7 µg/mL (≈ 2.23 µM); that for `NC(=O)c1c(NC(=O)COC(=O)c2ccc(O)c(Cl)c2)sc2c1CCCC2`, 8.5 µg/mL (≈ 20.8 µM).
Regarding `O=C(Nc1ccccc1C(=O)Nc1cccnc1)c1ccccc1`, the solubility (kinetic) came to 6.3 µg/mL (≈ 19.9 µM).
The result for `OC1CCC(NC(=S)Nc2ccc(SC(F)F)cc2)CC1` (centres undefined) reads 43.8 µg/mL (≈ 132 µM).
On to `COc1ccc(NC(=O)c2ccc(C)cc2)c[n+]1[O-]`, for which the solubility (kinetic) was more than 38.7 µg/mL.
In turn, `COc1ccc(C(=O)N2CC(c3ccccc3)CC2=O)cc1` (centres undefined) displayed a solubility (kinetic) of 3.4 µg/mL (≈ 11.5 µM).
The result for `CCC(=O)Nc1ccc(NC(=S)NC(=O)/C=C/c2ccco2)cc1` reads 3 µg/mL (≈ 8.74 µM).
The result for `Cc1nc(NC(=O)COC(=O)[C@@H](NC(=O)c2ccco2)C(C)C)c(Cl)cc1Cl` reads more than 64.2 µg/mL.
As for `COc1ccc(C(=O)Cn2cc([N+](=O)[O-])nc2C)cc1`, the solubility (kinetic) amounted to 13.5 µg/mL (≈ 49 µM).
Turning to `COc1ccc(N2CCN(C(=O)c3cc(C)on3)CC2)cc1`, the solubility (kinetic) was more than 45.2 µg/mL.
The result for `CCN(CC)c1ccc(C=Nc2cccnc2Cl)c(O)c1` reads 33.3 µg/mL (≈ 110 µM).
`O=C(Nc1ccc(F)c(Cl)c1)N1CCCCCC1` came in with a solubility (kinetic) of 5.8 µg/mL (≈ 21.4 µM).
The result for `N/C(=N\c1nc2ccccc2o1)NC(=O)c1cccc(Br)c1` reads less than 0.2 µg/mL; that for `O=S(=O)(/N=C(/Nc1nccs1)c1ccc(F)cc1)c1ccccc1`, 5 µg/mL (≈ 13.8 µM); that for `CC(=O)Oc1ccc(C(=O)NC(C)CCc2ccccc2)cc1` (centres undefined), 42.2 µg/mL (≈ 136 µM).
The result for `COC(CNc1ncnc2c1cnn2C)OC` reads more than 35.6 µg/mL; that for `CN(C(=O)c1cccc(NC(=O)c2ccco2)c1)c1ccccc1`, more than 48.1 µg/mL; that for `Cc1cc(C)nc(SC/C=C/c2ccccc2)n1.Cl`, 5.4 µg/mL.
The result for `COc1cccc(Oc2nc(-c3ccncc3)nc3ccccc23)c1` reads less than 0.2 µg/mL; that for `Cc1c(-n2cccc2C=O)cccc1[N+](=O)[O-]`, more than 34.5 µg/mL; that for `CCNc1c(NC(=O)c2cccs2)c(=O)oc2ccccc12`, 4.5 µg/mL (≈ 14.3 µM).
For the compound `Cc1ccc(NC(=O)N2CCc3ccccc3C2)c(C)c1`, the solubility (kinetic) came to 5.4 µg/mL (≈ 19.3 µM). This solubility kinetic and that of the compound before are within 1.5-fold of each other.
The result for `COc1ccc(CCNC(=O)c2csc3c2CCCC3)cc1` reads 2.1 µg/mL (≈ 6.66 µM); that for `Nc1[nH]c(=O)ncc1F`, more than 19.4 µg/mL.
The same measure for `COc1ccccc1NC(=O)COC(=O)Cn1cnc2c1c(=O)n(C)c(=O)n2C`: more than 60.2 µg/mL; for `O=S(=O)(c1c(Cl)sc(Cl)c1Br)N1CCCC1`: 4.4 µg/mL (≈ 12.1 µM); for `O=C(Nc1cccc(F)c1)C1CCN(C(=O)NCc2ccccc2)CC1`: 9.2 µg/mL (≈ 25.9 µM).
For the compound `CCN1CCN(C(=S)NC(=O)c2cccc(Br)c2)CC1`, the solubility (kinetic) is more than 53.4 µg/mL.
The result for `Cc1cccc(NC(=S)NCC(C)CSc2ccc(Cl)cc2)c1` (centres undefined) reads less than 0.4 µg/mL; that for `CCCC(=O)N1CCCC(c2nc(-c3cccc(OC)c3)no2)C1` (centres undefined), more than 49.4 µg/mL.
The same measure for `O=C(CN1C(=O)NC2(CCc3ccccc32)C1=O)c1cccs1` (centres undefined): more than 49 µg/mL.
The compound `Cc1ccccc1Nc1c(-c2ccccc2)nc2ncccn12` had a solubility (kinetic) of 8.1 µg/mL (≈ 27 µM).
The result for `CC(C)CN1CCN(CC#Cc2ccccc2)CC1CCO` (centres undefined) reads 43.6 µg/mL (≈ 145 µM).
The result for `COc1cccc(NC(=O)COC(=O)CNC(=O)C2CCCCC2)c1` reads more than 52.3 µg/mL.
Turning to `CN(C)c1cccc(C(=O)N(Cc2ccccc2)Cc2ccccc2)c1`, the solubility (kinetic) was 4.2 µg/mL (≈ 12.2 µM).
The same measure for `CCC(C(=O)OCC(=O)N1C(C)CCCC1C)c1ccccc1` (centres undefined): 45.1 µg/mL (≈ 142 µM).
For the compound `O=C(O)Cc1ccc(S(=O)(=O)N2CCCC2)s1`, the kinetic solubility is more than 41.3 µg/mL.
The same measure for `O=C(NCC(=O)N1CCN(c2ccccc2O)CC1)c1ccccc1`: 49.4 µg/mL (≈ 146 µM); for `CCC1CCc2sc(C(=O)NCC3CCCO3)cc2C1` (centres undefined): 42.3 µg/mL (≈ 144 µM).
The result for `O=C(c1cc(F)c(F)c(F)c1F)N1CCN(C(=O)C2CCCO2)CC1` (centres undefined) reads more than 54 µg/mL.
In turn, `N#Cc1ccc(C(=O)N2CCN(c3ncccn3)CC2)cc1` displayed a solubility (kinetic) of more than 44 µg/mL.
The result for `c1ccc(CCCN2CCN(c3ccccc3)CC2)cc1` reads 24.3 µg/mL (≈ 86.7 µM); that for `CCCCc1nnc(SCC(=O)Nc2nccs2)n1C`, more than 46.7 µg/mL.
In turn, `Cc1ccc(OCC(=O)O/N=C(\N)c2ccccn2)cc1C` displayed a solubility (kinetic) of 38.1 µg/mL (≈ 127 µM).
Compound `CCc1cc(S(N)(=O)=O)cc(CC)c1NC(C)=O` came in with a kinetic solubility of 38.4 µg/mL (≈ 142 µM).
The result for `Cc1cccc(N2N=C(C(=O)N3Cc4ccccc4CC3C(N)=O)CCC2=O)c1` (centres undefined) reads more than 58.6 µg/mL; that for `O=C(/C=C/c1ccccc1[N+](=O)[O-])NCc1ccccc1Cl`, 1.5 µg/mL (≈ 4.74 µM).
The same measure for `CC(=O)c1sc(NC(=O)c2ccccc2)nc1-c1ccccc1`: less than 0.3 µg/mL.
The result for `Cc1ccc(NC(=O)CSc2nc(N)cc(=O)[nH]2)cc1S(=O)(=O)N1CCCCC1` reads 46.6 µg/mL (≈ 107 µM).
Take `O=C(/C=C/c1ccccc1)NCCCNC(=O)/C=C/c1ccccc1`: the solubility (kinetic) came to 5 µg/mL (≈ 15 µM). This solubility kinetic is about 9.3-fold lower than that of the compound before.
The result for `OCc1c[nH]c(=S)n1CCOc1cccc(C(F)(F)F)c1` reads 5.5 µg/mL (≈ 17.3 µM).
The same measure for `O=C(c1cccs1)N1CCN(c2ccccc2)CC1`: more than 40.9 µg/mL; for `CC(=O)N1CCN(CCS(=O)(=O)c2cc(Cl)ccc2Cl)CC1`: more than 54.8 µg/mL.
The result for `O=C(Cc1ccc([N+](=O)[O-])cc1)c1ccc(O)cc1O` reads more than 41 µg/mL; that for `Cc1cc(C(=O)Nc2nncs2)oc1C`, more than 33.5 µg/mL.
Compound `CC(c1ccccc1)n1c(CCCO)nc2ccccc21` (centres undefined) yielded a kinetic solubility of more than 42.1 µg/mL.
The result for `O=C(Nc1ccccc1C(F)(F)F)c1ccc2nccnc2c1` reads more than 47.6 µg/mL; that for `COc1ccc(NC(=O)c2ccc(NC(=O)CN3CCN(c4ccccc4)CC3)cc2)cc1`, 1.4 µg/mL (≈ 3.15 µM); that for `O=C(COC(=O)c1ccccc1F)NC(=O)NC1CCCC1`, more than 46.2 µg/mL.
